This is an account of results in patent US10106565B2 (priority 2008, dated 2018).

SMILES strings stand for the structures.

Experiment [1] concerns human monocytes. The experiment is described as follows: Affymetrix genechip transcriptional profile of monocytes activated by dendrimer. Type of experiment: cell-based. Conditions: 20 μM, 6 hours, vs untreated monocytes. On the procedure: Peripheral Blood Mononuclear Cells (PBMC) from adult healthy volunteers are prepared as described in example 1.
Monocytes are then purified by positive selection using microbeads conjugated with anti-CD14 mAb, according to the manufacturer's instructions (Miltenyi Biotec). The cells obtained after the purification are >95% pure. The CD14 negative fraction is collected as Peripheral Blood Lymphocytes (PBL).
Monocytes are cultured at a final concentration of 1×10^6 cells/mL in complete RPMI 1640 medium (as described in example 1.1).
(§1) For genechip analysis, 10×10^6 monocytes from 3 donors (and from 3 more donors for quantitative PCR) are cultured in 25 cm^2 dishes. They are stimulated with 20 μM of dendrimer for 6 hours or remain untreated (control cells).
Total RNA are extracted from 10×10^6 monocytes using TRIzol™ Reagent (Invitrogen), according to the manufacturer's instructions. The quality and integrity of the RNA obtained are assessed by using an Agilent 2100 Bioanalyser (Agilent Technologies) after a denaturating step at 70° C. for 2 minutes. cRNA are prepared according to one-Cycle Target Labelling protocol (Affymetrix) starting from 1 μg of total RNA.
cRNA are fragmented and hybridized to Affymetrix HG-U133 plus 2.0 arrays. […] Monocytes from 3 donors are analyzed after 6 hour incubation in the presence or absence of the dendrimer Gc1. […]

The test system of experiment [2] is osteoclasts differentiated from human monocytes on bone matrix. The experiment is described as follows: Bone resorption in vitro (Crosslaps assay, CTX release). The format is cell-based. The following applies: for inhibition at 0.2 µM: 200 nM in differentiating medium; for inhibition at 20 µM: Monocyte, monocytes pre-incubated (6 hours, 20 μM) before differentiation. Here is the method:
PBMC from adult healthy volunteers are prepared as described in example 1.
Monocytes are then purified as described in section 4.2.
Monocytes were cultured in bone matrix 96-well plates (OsteoAssay Human bone plate, Lonza, USA) and differentiated into osteoclasts in the presence of M-CSF and sRANK-Ligand as described in section 4.2. Supernatants were collected and bone resorption was evaluated using a Crosslaps assay (Nordicbioscience, Danemark) which measures collagen degradation fragments.

Experiment [3] has as its system human monocytes. The experiment is described as follows: Quantitative RT-PCR of mRNA expression in dendrimer-activated monocytes. The format is cell-based. Conditions: 20 μM, 6 hours; da-monocytes vs untreated monocytes, 6 donors. On the procedure:
as §1
Total RNA are purified as described above, and 5 μg are used to synthesize single-strand cDNA using M-MLV reverse transcriptase RNase H Minus (Promega), according to the manufacturer's instructions. Quantitative RT-PCR is then performed using the Platinium SYBR Green qPCR SuperMix UDG (Invitrogen) with forward and reverse primers at a final concentration of 300 nM. The primers are designed using Primer Express software from mRNA sequences submitted to Ensembl data base, and are listed in FIG. 7. Quantification of the different mRNA is performed on a 7000 Sequence Detection System (Applied Biosystems). PCR amplification begins with 1 cycle of 50° C. for 2 minutes and 95° C. for 10 minutes, followed with 40 cycles of denaturation at 95° C. for 15 seconds and annealing/extension at 60° C. for 60 seconds. All experiments are performed in duplicate. For each donor, the relative expression is calculated as 2^−ΔΔCt where ΔΔCt is the difference between ΔCt of the sample and the ΔCt of the reference consisting of the control monocytes. ΔCt is the difference between the Ct of the target gene and the GAPDH gene. For statistical analysis, a one-tailed paired t test is performed comparing the ΔCt values for the da-monocytes and the corresponding control monocytes with Sigma Stat software (Systat Software).

The test system of experiment [4] is human monocytes. The experiment is described as follows: Flow cytometry phenotype of dendrimer-activated monocytes (surface markers). Type of experiment: cell-based. Conditions: 20 μM, compared with alt- and class-monocytes. Here is the method: For the functional experiments, freshly purified monocytes are cultured in 6-well plates. The cells are stimulated for 24 hours (immunophenotyping by flow cytometry analyses, MLR) or 96 hours (CD206 detection) with different stimuli or remain untreated (control). Dendrimer-activated monocytes (da-monocytes) are obtained with 20 μM of the dendrimer Gc1, alternatively-activated monocytes (alt-monocytes) with 10 U/mL recombinant human IL4 (Peprotech). The classical activation of monocytes is obtained by priming the cells over night (18 hours) with 100 U/mL of human recombinant IFN-γ (R&D Systems) and, after a washing step in PBS, by stimulation with 10 ng/mL LPS from E. coli 011/B4 strain (InvivoGen) for the remaining 6 hours or […].
Flow cytometry is performed on a LSR-II cytometer (BD Biosciences). The data are analyzed with FACSDiva (BD Biosciences) or WinMDI softwares. The expression of surface markers is performed using mouse anti-human fluorochrome-conjugated mAbs specific for MHC class II-FITC (clone Tü36), CD86-PE (clone 2331), MHC class I-PE-Cy5 (clone G46-2.6) and CD13-PE (clone WM15) from BD Biosciences and specific for CD64-FITC (clone 22) and CD206-PE (clone 3.29B1.10) from Beckman-Coulter. Appropriate isotype-matched antibodies are used as negative control.
For orientation: Flow cytometry measures light scatter and fluorescence of single cells or particles in a stream.

A further experiment deals with IL-1ra−/− mice. The experiment is described as follows: Spontaneous arthritis in IL-1ra-/- mice. The format is in vivo. The following applies: 10 mg/kg weekly intravenous from 8 weeks of age; at the age of 15 weeks. The source says:
Dendrimer ABP (azabisphosphonate) or Gc1 (FIG. 16A) was initially compared to two other dendrimer-based systems, dendrimer azamonophosphonate (AMP) and dendrimer polypropyleneimine (PPI), for antiarthritic activity in mice, according to the following protocole, described by Hayder et al. Science Transl. Med. 2011, 3, 81ra35.
IL-1ra−/− mice develop spontaneous arthritis beginning at 4 weeks of age. By 10 weeks, 100% of mice show full-blown disease, with marked paw swelling. We assessed the effect of dendrimers ABP, AMP, and PPI in this model of arthritis via weekly intravenous injections (10 mg/kg) starting at 8 weeks of age. The evolution of inflammation and arthritis was followed by measuring the hind paw swelling and by clinical arthritic score. The arthritic score per animal was the sum of the scores attributed to the four paws (28).

With `CN(/N=C/c1ccc(OP2(Oc3ccc(/C=N/N(C)P(=S)(Oc4ccc(CCN(CP(=O)(O)O)CP(=O)(O)O)cc4)Oc4ccc(CCN(CP(=O)(O)O)CP(=O)(O)O)cc4)cc3)=NP(Oc3ccc(/C=N/N(C)P(=S)(Oc4ccc(CCN(CP(=O)(O)O)CP(=O)(O)O)cc4)Oc4ccc(CCN(CP(=O)(O)O)CP(=O)(O)O)cc4)cc3)(Oc3ccc(/C=N/N(C)P(=S)(Oc4ccc(CCN(CP(=O)(O)O)CP(=O)(O)O)cc4)Oc4ccc(CCN(CP(=O)(O)O)CP(=O)(O)O)cc4)cc3)=NP(Oc3ccc(/C=N/N(C)P(=S)(Oc4ccc(CCN(CP(=O)(O)O)CP(=O)(O)O)cc4)Oc4ccc(CCN(CP(=O)(O)O)CP(=O)(O)O)cc4)cc3)(c3ccc(/C=N/N(C)P(=S)(Oc4ccc(CCN(CP(=O)(O)O)CP(=O)(O)O)cc4)Oc4ccc(CCN(CP(=O)(O)O)CP(=O)(O)O)cc4)cc3)=N2)cc1)P(=S)(Oc1ccc(CCN(CP(=O)(O)O)CP(=O)(O)O)cc1)Oc1ccc(CCN(CP(=O)(O)O)CP(=O)(O)O)cc1` (stereo not drawn) [Gc1], the “number of genes under-expressed by da-monocytes” value in the experiment with human monocytes [1] (fold change ≤−2.0 in at least two of three donors) is on record as 62. In addition, the “number of genes over-expressed by da-monocytes” value with human monocytes [1] (fold change ≥2.0 in at least two of three donors) is recorded as 78. Also, the inhibition (usually the share of the control response that was lost under treatment) at 0.2 µM in experiment [2] (288 h, day 12) is roughly 60%. Moreover, in experiment [2] (360 h, day 15), the inhibition at 0.2 µM is roughly 80%. The molecule also returned an inhibition at 20 µM in experiment [2] (day 12) of roughly 80%. Besides, the inhibition at 20 µM in experiment [2] (day 15) was roughly 50%. Also, in the experiment on human monocytes [3], the “mRNA expression of CCL5” value was “significantly under-expressed”; the “mRNA expression of alternative activation genes MRC1, IL1 RN, IL10, CCL18 and CD23” value was “significantly up-regulated”; the “mRNA expression of classical activation genes IL1β, IL6 and IL12” value is given as “not significantly modified”. For the same molecule, in the experiment on human monocytes [4] (24 hours), the “cell surface expression of CD13 (aminopeptidase N)” value was “Class-monocytes express a higher level of CD13 than alt- and da-monocytes”; the “cell surface expression of CD64 (FcγRI)” value is “overexpressed in class-monocytes, but not in alt- or da-monocytes”; the “expression of HLA-DR, HLA-A,B,C and CD86 (antigen-presenting capacity)” value is “poor APC”. Further, the “cell surface expression of mannose receptor MRC1 (CD206)” value in the experiment with human monocytes [4] (96 hours) was “strongly enhanced”. In addition, in the experiment with IL-1ra−/− mice, the arthritic score entry is “significant decrease” and the paw swelling result was “significant decrease”.
